“And” between values parts separate entries of the source, which are not always exact repeats. Equal entries are not always repeated.
How the values were obtained:
mouse Tas2r123 = target: T1, mouse Tas2r123 (Mus musculus, UniProt P59528); assay: Calcium imaging assay (FLIPR), HEK293T-Gα16gust44 cells transfected with mouse Tas2r123; type: cell-based; details: for Δ F/F: Tas2r123; for Activation threshold concentration Tas2r123: p < 0.01 vs empty vector
T1 construct: expressed in transfected cells; host or cells: HEK293T-Gα16gust44
T1 sequence (P59528 1-333): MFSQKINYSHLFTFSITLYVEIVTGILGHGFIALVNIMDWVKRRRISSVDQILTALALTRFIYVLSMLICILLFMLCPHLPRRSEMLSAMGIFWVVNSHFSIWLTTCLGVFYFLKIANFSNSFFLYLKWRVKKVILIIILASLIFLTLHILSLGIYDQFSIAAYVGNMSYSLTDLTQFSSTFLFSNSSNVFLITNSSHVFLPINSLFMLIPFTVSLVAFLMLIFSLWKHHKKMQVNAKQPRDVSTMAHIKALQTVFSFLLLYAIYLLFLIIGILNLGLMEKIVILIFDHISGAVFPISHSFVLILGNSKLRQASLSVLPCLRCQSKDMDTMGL
Description: (§1) This set of bile acids was chosen because of their commercial availability in high purities, their diversity within the class of bile acids and their previous detection and quantitation in human blood. Stock solutions were prepared in DMSO.
(§2) As basal growth medium for the HEK293T-Gα16gust44 cell line[17],[59] served Dulbecco’s modified eagle medium (DMEM) (Thermo Fisher Scientific, Darmstadt, Germany) supplemented with 10 % fetal bovine serum (Sigma-Aldrich, Steinheim, Germany), 2 mM L-glutamine (Sigma-Aldrich, Steinheim, Germany), 100 units/ml penicillin (Sigma Aldrich, Steinheim, Germany) and 100 µg/ml streptomycin (Sigma Aldrich, Steinheim, Germany). Growth conditions were 37 °C, 5 % CO2 and saturated air-humidity[60].
(§3) HEK293T-Gα16gust44 cells were seeded on poly-D-lysine (10 µg/ml) coated 96-well plates to reach a confluence of 40-60 % the next day. For transient transfection 150 ng of plasmid DNA containing the receptor of interest and 0.3 µl lipofectamine 2000 (Thermo Fisher Scientific, Darmstadt, Germany) per well were used and transfection took place according to the manual of lipofectamine 2000. […] The empty vector DNA (mock) was transfected as negative control[14],[41].
(§4) Cells were loaded using the calcium-sensitive fluorescent dye Fluo-4-AM (Abcam, Cambridge, Great Britain) in the presence of 2.5 mM probenecid (Sigma-Aldrich, Steinheim, Germany) the day after transfection[13],[41]. 1 h after loading, cells were washed with C1 buffer using a BioTek Cell Washer, incubated in the dark for half an hour and washed again. For automated agonist application and measurement of fluorescence changes, a FLIPR^TETRA device (Molecular Devices, San José, United States) was used. Viability of cells was tested by application of 100 nM Somatostatin 14 (Bachem, Bubendorf, Switzerland)[42].
(§5) Measured data were negative control corrected by subtracting the signal of the mock-transfected cells and exported to Microsoft Excel using the FLIPR software ScreenWorks 4.2. In Microsoft Excel software, standardization of maximum fluorescence intensities to the basal fluorescence and normalization to the buffer-only control was done to calculate the relative fluorescence changes (ΔF/F).
(§6) Initial screening experiments performed in duplicate wells were confirmed by at least one replication and representative traces were selected for display. All dose-response relationships were determined by three independent experiments (biological replicates) performed in duplicates (technical replicates). Threshold concentrations, defined as lowest substance concentrations leading to statistically significant elevated fluorescence changes in receptor-transfected cells compared with empty vector-transfected cells, were determined using SigmaPlot with Student’s t-test to evaluate statistical significance (p < 0.01).

human TAS2R46 = target: T2, human TAS2R46 (Homo sapiens, UniProt P59540); assay: Calcium imaging assay (FLIPR), HEK293T-Gα16gust44 cells transfected with human TAS2R46; type: cell-based; details: for Efficacy = maximal amplitude (ΔF/F) / Efficacy (maximal amplitude ΔF/F), individual data points / Δ F/F: TAS2R46; for Efficacy = maximal amplitude (ΔF/F) / Efficacy (maximal amplitude ΔF/F), individual data points: bile acids; for Efficacy = maximal amplitude (ΔF/F): mean; for Efficacy (maximal amplitude ΔF/F), individual data points: single replicates; for Activation threshold concentration TAS2R46: lowest concentration with significantly increased fluorescence vs empty vector (p < 0.01); for Efficacy (signal amplitude) versus control stimulus, TAS2R46: highest applied concentrations, control 10 µM strychnine
T2 construct: expressed in transfected cells; host or cells: HEK293T-Gα16gust44
T2 sequence (P59540 1-309): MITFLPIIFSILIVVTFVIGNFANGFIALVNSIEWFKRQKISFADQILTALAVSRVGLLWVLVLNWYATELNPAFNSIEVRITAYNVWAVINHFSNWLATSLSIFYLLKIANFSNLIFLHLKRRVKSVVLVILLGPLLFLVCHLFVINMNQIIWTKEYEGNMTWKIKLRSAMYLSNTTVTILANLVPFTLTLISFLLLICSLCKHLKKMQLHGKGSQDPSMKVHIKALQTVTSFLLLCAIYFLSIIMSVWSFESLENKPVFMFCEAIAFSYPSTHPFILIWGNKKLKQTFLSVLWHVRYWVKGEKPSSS
Description: as §1, §2, §3, §4, §5, §6

Row | Structure (SMILES) | Δ F/F (mouse Tas2r123; conc. 0,01 mM) | Δ F/F (mouse Tas2r123; conc. 0,1 mM) | Δ F/F (mouse Tas2r123; conc. 0,03 mM) | Δ F/F (mouse Tas2r123; conc. 0,3 mM) | Δ F/F (mouse Tas2r123; conc. 0,001 mM) | Δ F/F (mouse Tas2r123; conc. 0,003 mM) | Activation threshold concentration Tas2r123 (mouse Tas2r123) [µM] | Efficacy = maximal amplitude (ΔF/F) (human TAS2R46) | Δ F/F (human TAS2R46; conc. 0,01 mM) | Δ F/F (human TAS2R46; conc. 0,1 mM) | Δ F/F (human TAS2R46; conc. 0,03 mM) | Δ F/F (human TAS2R46; conc. 0,3 mM) | Δ F/F (human TAS2R46; conc. 0,001 mM) | Δ F/F (human TAS2R46; conc. 1 mM) | Δ F/F (human TAS2R46; conc. 0,003 mM) | Activation threshold concentration TAS2R46 (human TAS2R46) [µM] | other results
1 | C[C@H](CCC(=O)NCC(=O)O)[C@H]1CC[C@H]2[C@@H]3[C@H](O)C[C@@H]4C[C@H](O)CC[C@]4(C)[C@H]3C[C@H](O)[C@]12C [Glycocholic Acid, glycocholic acid] | -0.001074 | -0.0006317 | -0.000632 | -0.001006 | 7.054e-5 | 0.000982 | 30 | 0.0591 | 0.003139 | 0.004292 | 0.007529 | 0.01216 | 0.002929 | 0.0591 | 0.003879 | 1000 | Efficacy (maximal amplitude ΔF/F), individual data points (human TAS2R46; listed as GCA): 0.05097 and 0.06295 and 0.06339
2 | C[C@H](CCC(=O)O)[C@H]1CC[C@H]2[C@@H]3CC[C@@H]4C[C@H](O)CC[C@]4(C)[C@H]3C[C@H](O)[C@]12C [Deoxycholic Acid, deoxycholic acid] |  |  |  |  |  |  | 10 |  |  |  |  |  |  |  |  |  | 
3 | C[C@H](CCC(=O)NCCS(=O)(=O)O)[C@H]1CC[C@H]2[C@@H]3CC[C@@H]4C[C@H](O)CC[C@]4(C)[C@H]3CC[C@]12C [Taurolithocholic Acid, taurolithocholic acid] |  |  |  |  |  |  |  | 0.2226 |  |  |  |  |  |  |  | 0.3 | Efficacy (maximal amplitude ΔF/F), individual data points (human TAS2R46; listed as TLCA): 0.2236 and 0.2143 and 0.2299; Efficacy (signal amplitude) versus control stimulus, TAS2R46 (human TAS2R46): about equal to that obtained for strychnine; Efficacy (signal amplitude) versus control stimulus, TAS2R46 (human TAS2R46; listed as TCLA): full agonist; Efficacy (signal amplitude) versus control stimulus, TAS2R46 (human TAS2R46; listed as TLCA): significantly higher than that of TCA and GCA and comparable to the control stimulus strychnine
4 | C[C@H](CCC(=O)O)[C@H]1CC[C@H]2[C@@H]3[C@H](O)C[C@@H]4C[C@H](O)CC[C@]4(C)[C@H]3C[C@H](O)[C@]12C [Cholic Acid, cholic acid] |  |  |  |  |  |  | 10 |  |  |  |  |  |  |  |  |  | 
5 | C[C@H](CCC(=O)O)[C@H]1CC[C@H]2[C@@H]3[C@@H](O)C[C@@H]4C[C@H](O)CC[C@]4(C)[C@H]3CC[C@]12C [Ursodeoxycholic Acid, ursodeoxycholic acid] | 0.06526 |  | 0.08617 |  | 0.01545 | 0.01427 | 10 |  |  |  |  |  |  |  |  |  | Δ F/F (mouse Tas2r123; conc. 0,0001 mM): -5.942e-5; Δ F/F (mouse Tas2r123; conc. 0,0003 mM): -0.0007331
6 | C[C@H](CCC(=O)NCCS(=O)(=O)O)[C@H]1CC[C@H]2[C@@H]3[C@H](O)C[C@@H]4C[C@H](O)CC[C@]4(C)[C@H]3C[C@H](O)[C@]12C [Taurocholic Acid, taurocholic acid] | 0.015 | 0.09205 | 0.02651 | 0.1589 | 0.002404 | 0.009262 | 100 | 0.03422 | 0.006451 | 0.007108 | 0.004646 | 0.00491 | 0.003048 | 0.03422 | 0.00216 | 1000 | Efficacy (maximal amplitude ΔF/F), individual data points (human TAS2R46; listed as TCA): 0.02095 and 0.04014 and 0.04158

Source: paper PMC10247784, “Physiological activation of human and mouse bitter taste receptors by bile acids” (Communications Biology, 2023)
